Data from US20240373851A1, “PEST CONTROL COMPOSITION AND PEST CONTROL METHOD” (SUMITOMO CHEMICAL COMPANY, LIMITED, priority 2021, published 2024).

How the values were obtained:
Type in all cases: in vivo
[1] = system: German cockroaches (Blattella germanica); experiment: Test Example 1: control test against German cockroaches, spray in chamber (cup without filter paper); conditions: adult German cockroaches; 1.5 mL sprayed; concentration [%]: broflanilide 0.01, imiprothrin 0.01, cypermethrin 0.01, alone or mixed; 120 minutes after spraying
Description: (§1) Next, the usefulness of the inventive composition for controlling pests will be indicated by Test Examples. In general, the control effect to be expected when treated with a mixture obtained by mixing given two or three types of active ingredient compounds is determined by the Colby's calculation equation represented by the following [Equation 1] and [Equation 2].
(§2) [formula] • P: moribund and mortal rates (%) when treated with an active ingredient compound X in the concentration of m [ppm] • Q: moribund and mortal rates (%) when treated with an active ingredient compound Y in the concentration of n [ppm] • EA: moribund and mortal rates (%) when treated with an active ingredient compound X in the concentration of m [ppm] and an active ingredient compound Y in the concentration of n [ppm] (hereinafter referred to as expected value A) […]
(§3) Regarding the synergistic effect of three types of the active ingredient compounds, in case where the moribund and mortal rates (%) when actually treated with a mixture obtained by mixing three types of the active ingredient compounds exceed the expected value A calculated by using the moribund and mortal rates (%) when actually treated with a mixture obtained by mixing two types of the active ingredient compounds among three types thereof, and the moribund and mortal rates (%) calculated when actually treated the remaining one type of the active ingredient compound, or the expected value B (%) calculated from the moribund and mortal rates (%) when actually treated with each of three types of the active ingredient compounds alone, it was determined that the synergistic effect exists.
In a plastic cup (diameter: 12.4 cm, height: 10.2 cm), ten adult German cockroaches (Blattella germanica) (five males and five females each) were released, and the plastic cup was placed in the center of the bottom of a box-shaped chamber (46 cm×46 cm×70 cm in height). […] After a lapse of 120 minutes from spraying, the number of dead and moribund individuals was examined, and moribund and mortal rates (%) were determined by the equation 3 below. […]

[2] = system: German cockroaches (Blattella germanica); experiment: Test Example 7: control test against German cockroaches, spray in chamber; conditions: adult German cockroaches; 1.5 mL sprayed; concentration [%]: isocycloseram 0.05, imiprothrin 0.01, cypermethrin 0.01, alone or mixed; 120 minutes after spraying
Description: as §1, §2
as §3, with “exists. […]” for “exists.”

[3] = system: German cockroaches (Blattella germanica); experiment: Test Example 6: control test against German cockroaches, spray in chamber; conditions: adult German cockroaches; 1.5 mL sprayed; concentration [%]: isocycloseram 0.05, imiprothrin 0.01, lambda-cyhalothrin 0.0025, alone or mixed; 60 minutes after spraying
Description: as §1, §2
as §3, with “exists. […]” for “exists.”

[4] = system: German cockroaches (Blattella germanica); experiment: Test Example 2: control test against German cockroaches, spray in chamber; conditions: adult German cockroaches; 1.5 mL sprayed; concentration [%]: nicofluprole 0.01, imiprothrin 0.01, cypermethrin 0.01, alone or mixed; 120 minutes after spraying
Description: as §1, §2
as §3, with “exists. […]” for “exists.”

SMILES: C#CCN1CC(=O)N(COC(=O)[C@@H]2C(C=C(C)C)C2(C)C)C1=O (mixture of isomers) [Imiprothrin, imiprothrin]
- Moribund and mortal rates [%] after 120 minutes [1]: 15%
- Moribund and mortal rates [%] after 120 minutes [2]: 5%
- Moribund and mortal rates [%] after 60 minutes [3]: 25%
- Moribund and mortal rates [%] after 120 minutes [4]: 15%
